These results are taken from paper PMC6934184, “Selective DNA-PKcs inhibition extends the therapeutic index of localized radiotherapy and chemotherapy” (The Journal of Clinical Investigation, 2019).

The target of this assay is T1, FLT1 (VEGFR1) (Homo sapiens, UniProt P17948).
T1 construct: purchased Thermo Fisher Scientific (Life Technologies) SelectScreen
The assay is described as follows: SelectScreen Z'LYTE. In kind it is biochemical. The method, boiled down:
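NU5455 was profiled across the SelectScreen Broad panel of kinase activity and binding assays. Z'LYTE reactions such as CSF1R ran at apparent Km ATP, while the Adapta CAMK1 assay used ATP listed as 10. Values are given as percent.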

T1 sequence (P17948 27-1338): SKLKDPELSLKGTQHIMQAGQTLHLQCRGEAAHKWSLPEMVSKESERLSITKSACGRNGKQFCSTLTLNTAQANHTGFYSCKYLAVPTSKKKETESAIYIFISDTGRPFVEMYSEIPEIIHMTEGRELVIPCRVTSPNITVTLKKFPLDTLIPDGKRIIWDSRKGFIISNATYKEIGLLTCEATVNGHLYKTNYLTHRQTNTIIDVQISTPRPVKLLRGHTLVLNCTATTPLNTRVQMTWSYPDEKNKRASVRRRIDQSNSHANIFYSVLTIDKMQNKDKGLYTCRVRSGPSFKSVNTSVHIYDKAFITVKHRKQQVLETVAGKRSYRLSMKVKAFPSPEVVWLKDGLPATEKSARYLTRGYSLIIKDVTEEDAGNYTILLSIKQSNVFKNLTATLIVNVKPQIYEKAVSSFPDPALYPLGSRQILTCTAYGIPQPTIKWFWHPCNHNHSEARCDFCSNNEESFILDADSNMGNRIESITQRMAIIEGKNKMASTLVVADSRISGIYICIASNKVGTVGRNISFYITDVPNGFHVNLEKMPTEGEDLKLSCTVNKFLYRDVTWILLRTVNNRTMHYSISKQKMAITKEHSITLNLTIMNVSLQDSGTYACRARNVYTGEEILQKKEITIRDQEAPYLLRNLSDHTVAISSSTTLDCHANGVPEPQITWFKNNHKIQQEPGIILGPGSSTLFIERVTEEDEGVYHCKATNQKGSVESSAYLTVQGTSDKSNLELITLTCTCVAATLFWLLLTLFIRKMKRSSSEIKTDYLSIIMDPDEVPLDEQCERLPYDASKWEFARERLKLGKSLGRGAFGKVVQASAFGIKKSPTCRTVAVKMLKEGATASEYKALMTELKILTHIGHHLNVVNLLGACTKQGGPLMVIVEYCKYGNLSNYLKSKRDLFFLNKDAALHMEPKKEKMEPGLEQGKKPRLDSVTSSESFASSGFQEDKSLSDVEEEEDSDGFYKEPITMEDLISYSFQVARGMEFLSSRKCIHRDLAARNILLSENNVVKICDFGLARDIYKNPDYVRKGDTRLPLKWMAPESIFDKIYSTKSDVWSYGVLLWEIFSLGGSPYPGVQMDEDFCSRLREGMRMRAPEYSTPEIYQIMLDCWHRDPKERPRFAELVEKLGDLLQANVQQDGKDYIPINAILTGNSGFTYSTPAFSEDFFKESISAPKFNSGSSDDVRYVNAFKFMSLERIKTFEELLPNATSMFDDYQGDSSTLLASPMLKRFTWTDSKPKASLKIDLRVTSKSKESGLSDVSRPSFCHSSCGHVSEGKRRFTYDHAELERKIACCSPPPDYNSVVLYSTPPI

In turn, `CN(C(=O)CN1CCOCC1)c1ccc2sc3c(-c4cccc5c(=O)cc(N6CC7CCC(C6)O7)oc45)cccc3c2c1` [NU5455] returned an inhibition at 1 µM of 6.5%.
